In patent publication US8846951B2 (AbbVie Inc., priority 2009, dated 2014):
Read-outs that look alike come from different tables or passages of the source.

Columns and labels:
5HT2B receptors = biological target: T1, 5HT2B receptors (Homo sapiens, UniProt P41595); experiment: Human 5-HT2B functional high throughput screening assay in CHO-K1 cells (calcium flux); format: cell-based; conditions: for EC50: CHO-K1 cells, calcium flux
T1 construct: expressed in transfected cells; host or cells: CHO-K1 cells
Method: (§1) (iii) Human 5-HT2C and 5-HT2B Functional High Throughput Screening Assays in CHO-K1 Cells
(§2) CHO-K1 cells over-expressing 5HT2C or 5HT2B receptors were grown in 1272 cm^2 flasks to 70-80% confluency in UltraCHO media (Lonza, Walkersville, Md.) supplemented with 1% dialyzed fetal bovine serum (FBS), 250 μg/mL zeocin, 100 U/mL penicillin and 100 μg/mL streptomycin, and 400 μg/mL geneticin. The cells were dissociated from the flasks using 0.05% trypsin, resuspended in Recovery™ cell culture freezing medium (Invitrogen, Carlsbad, Calif.) and stored in liquid nitrogen until use. The calcium flux experiments were done using frozen cells. The cells were diluted in media containing 1% dialyzed FBS and 100 U/mL penicillin and 100 μg/mL streptomycin and plated into 384-well poly-D-Lysine coated plates (15,000 cells/well). Then the plates were incubated overnight in a cell incubator at 37° C., 5% CO2. On the next day, the growth media was replaced with media without FBS and further incubated overnight. On day three, the changes in intracellular Ca^2+ were determined using calcium sensitive fluorescent dye, Ca4 (MDS Analytical Technologies, Sunnyvale, Calif.) by loading 15 μL of diluted dye in Hank's Balanced Salt Solution and 20 mM Hepes buffer (pH 7.4) with final concentration of 2.5 mM probenecid into the cells containing media. Then the cells were incubated at room temperature for 60 minutes in dark.
(§3) After incubation, the cell plates were transferred to FLIPR™ (MDS) and their fluorescence measurements were read at an excitation wavelength of 480 nm and an emission wavelength of 530 nm at 25° C. The baseline fluorescence was measured for the first 10 seconds and then 15 μL of 4× concentration of serotonin/test compound was added to the cells. The fluorescence intensity was captured every second for the first 1 minute followed by every 5 seconds for an additional 2 minutes. The increase in fluorescent response by a test compound was normalized to the response of serotonin and used to determine agonist activity. The concentration response of compounds was done from a starting concentration of 10 μM, 1:10 dilution across 6 wells with a final dimethyl sulfoxide concentration of 0.2% and was fitted using a 4-parameter logistic equation. The concentration at which a compound exerts half its maximal effect was named as ‘effective concentration 50’ or ‘EC50’. Emax is the maximum functional response or efficacy expressed as a percentage relative to the effect of serotonin.

5HT2C receptors = biological target: T2, 5HT2C receptors (Homo sapiens, UniProt P28335); experiment: Human 5-HT2C functional high throughput screening assay in CHO-K1 cells (calcium flux); format: cell-based; parameters: expressed in transfected cells; host or cells: CHO-K1 cells; conditions: for Emax: CHO-K1, 5-HT2C, maximum functional response as percentage relative to the effect of serotonin; for EC50: CHO-K1 cells, calcium flux
T2 sequence (P28335 33-458): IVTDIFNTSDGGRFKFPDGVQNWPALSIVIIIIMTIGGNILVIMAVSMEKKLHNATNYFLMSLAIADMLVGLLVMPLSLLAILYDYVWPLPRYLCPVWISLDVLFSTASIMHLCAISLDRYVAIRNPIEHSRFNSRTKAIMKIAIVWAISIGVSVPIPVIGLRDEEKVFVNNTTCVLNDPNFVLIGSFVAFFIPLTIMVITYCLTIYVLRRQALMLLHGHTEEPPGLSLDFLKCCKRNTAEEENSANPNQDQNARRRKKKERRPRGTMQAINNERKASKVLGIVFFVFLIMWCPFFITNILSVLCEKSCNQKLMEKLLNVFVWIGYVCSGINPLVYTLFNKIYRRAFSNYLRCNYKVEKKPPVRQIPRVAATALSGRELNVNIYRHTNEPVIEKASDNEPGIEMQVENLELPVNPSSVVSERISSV
Method: as §1, §2, §3

[1] = 5-HT2B agonist activity, read-out: EC50
[2] = 5-HT2B, maximum functional response as percentage relative to the effect of serotonin
[3] = 5-HT2C agonist activity, read-out: EC50

T1 sequence (P41595 whole entry): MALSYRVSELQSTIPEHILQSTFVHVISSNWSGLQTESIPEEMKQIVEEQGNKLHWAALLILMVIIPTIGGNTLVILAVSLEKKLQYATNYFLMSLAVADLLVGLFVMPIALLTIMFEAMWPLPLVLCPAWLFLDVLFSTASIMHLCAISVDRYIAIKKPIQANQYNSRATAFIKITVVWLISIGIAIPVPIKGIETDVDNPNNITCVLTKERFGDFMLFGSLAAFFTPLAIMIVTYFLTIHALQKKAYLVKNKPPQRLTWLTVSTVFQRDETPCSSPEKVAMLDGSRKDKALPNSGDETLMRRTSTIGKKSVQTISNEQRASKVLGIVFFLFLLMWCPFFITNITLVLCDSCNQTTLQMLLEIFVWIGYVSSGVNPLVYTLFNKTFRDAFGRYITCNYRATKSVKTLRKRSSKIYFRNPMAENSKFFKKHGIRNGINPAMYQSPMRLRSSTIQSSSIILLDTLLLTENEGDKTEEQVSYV

| EC50 (5HT2B receptors; [1]) [nM] | Emax (5HT2B receptors; [2]) | EC50 (5HT2C receptors; [3]) [nM] | Emax (5HT2C receptors; read-out: Emax) [%] | Emax (5HT2B receptors; CHO-K1, 5-HT2B, maximum functional response as percentage relative to the effect of serotonin, read-out: Emax) [%] | Compound | Emax (5HT2B receptors; CHO-K1) [%] | EC50 (5HT2B receptors; EC50, 5-HT2B agonist activity) [nM] | Emax (5HT2C receptors) [%] | EC50 (5HT2C receptors; EC50, 5-HT2C agonist activity) [nM] |
| --- | --- | --- | --- | --- | --- | --- | --- | --- | --- |
| > 10000 | inactive | 0.4 | 105 | – | C[C@H](O)c1cc(-c2ccc3c(c2)C(=O)NC[C@H]2CN(C)C[C@H]32)ccc1F (single isomer, unassigned) [Example 352] | – | – | – | – |
| > 10000 | inactive | 3 | 85 | – | CN1C[C@H]2CNC(=O)c3cc(-c4ccc5c(c4)OCC5)ccc3[C@@H]2C1 (relative stereo) [Example 324, Trans-8-(2,3-dihydro-1-benzofuran-6-yl)-2-methyl-2,3,3a,4,5,10b-hexahydropyrrolo[3,4-d][2]benzazepin-6(1H)-one] | – | – | – | – |
| > 10000 | inactive | 30 | 90 | – | CCS(=O)(=O)c1cccc(-c2ccc3c(c2)C(=O)NC[C@@H]2CN(C)C[C@@H]32)c1 (relative stereo) [Example 255, Trans-8-(3-(ethylsulfonyl)phenyl)-2-methyl-1,2,3,3a,4,5-hexahydrobenzo[c]pyrrolo[3,4-e]azepin-6(10bH)-one] | – | – | – | – |
| > 10000 | inactive | 0.7 | 100 | – | CN1C[C@@H]2CNC(=O)c3cc(-c4ccc5c(c4)C(O)CC5)ccc3[C@H]2C1 (stereo partly drawn) [Example 310, (3aS,10bS)-8-(3-Hydroxy-2,3-dihydro-1H-inden-5-yl)-2-methyl-2,3,3a,4,5,10b-hexahydropyrrolo[3,4-d][2]benzazepin-6(1H)-one] | – | – | – | – |
| > 10000 | inactive | – | 90 | – | CN1C[C@H]2CNC(=O)c3cc(-c4cccc(S(C)(=O)=O)c4)ccc3[C@@H]2C1 [Example 229, (3aR,10bR)-2-Methyl-8-(3-(methylsulfonyl)phenyl)-1,2,3,3a,4,5-hexahydrobenzo[c]pyrrolo[3,4-e]azepin-6(10bH)-one] | – | – | – | – |
| > 10000 | inactive | 900 | 105 | – | CS(=O)(=O)c1ccccc1-c1ccc2c(c1)C(=O)NC[C@@H]1CNC[C@@H]21 (relative stereo) [Example 231, Trans-8-(2-(methylsulfonyl)phenyl)-1,2,3,3a,4,5-hexahydrobenzo[c]pyrrolo[3,4-e]azepin-6(10bH)-one] | – | – | – | – |
| > 10000 | inactive | 400 | 80 | – | CN1C[C@H]2CNC(=O)c3cc(N4CCCCC4)ccc3[C@@H]2C1 (relative stereo) [Example 298, Trans-2-methyl-8-(piperidin-1-yl)-2,3,3a,4,5,10b-hexahydropyrrolo[3,4-d][2]benzazepin-6(1H)-one] | – | – | – | – |
| 60 | – | 20 | 120 | 40 | O=C1NC[C@@H]2CNC[C@H]2c2cc3ccccc3cc21 (relative stereo) [Example 257, Trans-1,2,3,3a,4,5-hexahydronaphtho[2,3-e]pyrrolo[3,4-e]azepin-6(12bH)-one] | – | – | – | – |
| > 10000 | inactive | 2 | > 120 | – | CN1C[C@@H]2CNC(=O)c3cc(OCc4cccc(F)c4)ccc3[C@H]2C1 [Example 206, (3aS,10bS)-8-(3-Fluorobenzyloxy)-2-methyl-1,2,3,3a,4,5-hexahydrobenzo[e]pyrrolo[3,4-c]azepin-6(10bH)-one] | – | – | – | – |
| > 10000 | inactive | 1000 | 75 | – | CS(=O)(=O)c1cccc(-c2cccc3c2OCC[C@H]2CNC[C@H]32)c1 (relative stereo) [Example 350, Trans-7-[3-(methylsulfonyl)phenyl]-2,3,3a,4,5,10b-hexahydro-1H-[1]benzoxepino[4,5-c]pyrrole] | – | – | – | – |

Further lines, the compound ahead of its results:

| Compound | EC50 (5HT2B receptors; [1]) [nM] | Emax (5HT2B receptors; [2]) | EC50 (5HT2C receptors; [3]) [nM] | Emax (5HT2C receptors; read-out: Emax) [%] | Emax (5HT2B receptors; CHO-K1, 5-HT2B, maximum functional response as percentage relative to the effect of serotonin, read-out: Emax) [%] | Emax (5HT2B receptors; CHO-K1) [%] | EC50 (5HT2B receptors; EC50, 5-HT2B agonist activity) [nM] | Emax (5HT2C receptors) [%] | EC50 (5HT2C receptors; EC50, 5-HT2C agonist activity) [nM] |
| --- | --- | --- | --- | --- | --- | --- | --- | --- | --- |
| Brc1ccc2c(c1)[C@H]1CNC[C@@H]1CCO2 (relative stereo) [Example 214, Trans-9-bromo-2,3,3a,4,5,10b-hexahydro-1H-[1]benzoxepino[4,5-c]pyrrole] | – | – | – | – | – | 50 | 20 | > 120 | 2 |
| CN1C[C@@H]2CNC(=O)c3cc(O)ccc3[C@H]2C1 [Example 200, (3aS,10bS)-8-Hydroxy-2-methyl-1,2,3,3a,4,5-hexahydrobenzo[e]pyrrolo[3,4-c]azepin-6(10bH)-one] | > 10000 | inactive | 500 | – | – | – | – | 55 | – |
| CN1C[C@H]2CNC(=O)c3cc(-c4cccc(OC(F)(F)F)c4)ccc3[C@@H]2C1 (relative stereo) [Example 132, Trans-2-methyl-8-(3-(trifluoromethoxy)phenyl)-1,2,3,3a,4,5-hexahydrobenzo[e]pyrrolo[3,4-c]azepin-6(10bH)-one] | > 10000 | inactive | 20 | > 120 | – | – | – | – | – |
| COc1cccc2c1[C@H]1CNC[C@@H]1CCO2 (relative stereo) [Example 272, Trans-10-methoxy-2,3,3a,4,5,10b-hexahydro-1H-[1]benzoxepino[4,5-c]pyrrole] | – | – | – | – | – | 20 | 200 | > 120 | 7 |
| COc1ccc2c(c1)C(=O)NC[C@@H]1CNC[C@H]21 (relative stereo) [Example 135, Cis-8-methoxy-1,2,3,3a,4,5-hexahydrobenzo[e]pyrrolo[3,4-c]azepin-6(10bH)-one] | > 10000 | inactive | 800 | – | – | – | – | > 120 | – |
| O=C1NC[C@@H]2CNC[C@H]2c2ccc(OCc3cccc(F)c3)cc21 (relative stereo) [Example 146, Trans-8-(3-fluorobenzyloxy)-1,2,3,3a,4,5-hexahydrobenzo[e]pyrrolo[3,4-c]azepin-6(10bH)-one] | – | – | – | – | – | 15 | 1000 | > 120 | 0.8 |
| Clc1ccc2c(c1)[C@@H]1CNC[C@H]1CCN2 (relative stereo) [Example 391, Trans-9-chloro-1,2,3,3a,4,5,6,10b-octahydropyrrolo[3,4-d][1]benzazepine] | – | – | – | – | – | 70 | 20 | 90 | 90 |
| Fc1ccc2c(c1)OCC[C@H]1CNC[C@H]21 (relative stereo) [Example 109, Trans-8-fluoro-2,3,3a,4,5,10b-hexahydro-1H-[1]benzoxepino[4,5-c]pyrrole] | – | – | – | – | – | 55 | 300 | > 120 | 40 |
| CC(O)c1cccc(-c2ccc3c(c2)C(=O)N(C)C[C@@H]2CN(C)C[C@@H]32)c1 (relative stereo) [Example 193, Trans-8-(3-(1-hydroxyethyl)phenyl)-2,5-dimethyl-1,2,3,3a,4,5-hexahydrobenzo[e]pyrrolo[3,4-c]azepin-6(10bH)-one] | > 10000 | inactive | 20 | > 120 | – | – | – | – | – |
| CN1C[C@H]2CNC(=O)c3cc(C(=O)N4CCCCC4)ccc3[C@@H]2C1 (relative stereo) [Example 122, Trans-2-methyl-8-(piperidine-1-carbonyl)-1,2,3,3a,4,5-hexahydrobenzo[e]pyrrolo[3,4-c]azepin-6(10bH)-one] | > 10000 | inactive | 6000 | 100 | – | – | – | – | – |
| COc1cccc(-c2ccc3c(c2)C(=O)NC[C@@H]2CN(C)C[C@@H]32)c1 [Example 161, (3aR,10bR)-8-(3-Methoxyphenyl)-2-methyl-1,2,3,3a,4,5-hexahydrobenzo[e]pyrrolo[3,4-c]azepin-6(10bH)-one] | > 10000 | inactive | – | 110 | – | – | – | – | – |
